In patent publication US10894784B2, “Heteroarylbenzimidazole compounds” (BAYER PHARMA AKTIENGESELLSCHAFT, priority 2015, dated 2021):

The molecules below were run against TBK1 (Homo sapiens (Human), UniProt Q9UHD2) (assay: TBK1 low ATP kinase assay (in vitro assay 1)). Conditions: in vitro assay 1, read-out: TBK1 low ATP kinase assay IC50.
TBK1, sequence (Q9UHD2 whole entry): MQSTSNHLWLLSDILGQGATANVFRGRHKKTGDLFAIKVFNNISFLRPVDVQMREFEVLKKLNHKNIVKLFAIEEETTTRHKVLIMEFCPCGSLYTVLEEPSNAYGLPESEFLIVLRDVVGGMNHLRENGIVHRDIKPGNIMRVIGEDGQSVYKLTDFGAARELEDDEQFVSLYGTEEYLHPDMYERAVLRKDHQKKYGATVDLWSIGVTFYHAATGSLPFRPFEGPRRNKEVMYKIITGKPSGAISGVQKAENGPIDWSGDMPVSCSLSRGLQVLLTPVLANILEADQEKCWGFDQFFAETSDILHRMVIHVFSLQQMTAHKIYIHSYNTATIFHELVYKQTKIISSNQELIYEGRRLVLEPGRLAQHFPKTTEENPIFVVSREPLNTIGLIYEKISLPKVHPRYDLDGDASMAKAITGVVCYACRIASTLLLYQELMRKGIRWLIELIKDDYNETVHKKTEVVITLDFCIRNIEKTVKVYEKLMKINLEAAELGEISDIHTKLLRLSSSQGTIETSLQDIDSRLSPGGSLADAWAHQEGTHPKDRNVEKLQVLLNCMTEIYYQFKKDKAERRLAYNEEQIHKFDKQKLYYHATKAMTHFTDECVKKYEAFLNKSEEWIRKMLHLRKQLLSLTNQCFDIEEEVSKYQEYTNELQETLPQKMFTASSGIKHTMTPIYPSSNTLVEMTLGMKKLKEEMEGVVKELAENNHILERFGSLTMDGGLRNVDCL
Type: biochemical
Cc1noc(-c2ccc3nc(Nc4cc(CN5CCN(C(=O)CC(F)(F)F)C[C@H]5C)ccn4)[nH]c3c2)n1 [Example 16.03.02, 3,3,3-trifluoro-1-{(3R)-3-methyl-4-[(2-{[6-(3-methyl-1,2,4-oxadiazol-5-yl)-1H-benzimidazol-2-yl]amino}pyridin-4-yl)methyl]piperazin-1-yl}propan-1-one] was tested, and the IC50 was 63.1 nM. Cc1noc(-c2ccc3nc(Nc4cc(CN5CCN(C(=O)CC6CC6)C[C@H]5C)ccn4)[nH]c3c2)n1 [Example 16.03.03, 2-cyclopropyl-1-{(3R)-3-methyl-4-[(2-{[6-(3-methyl-1,2,4-oxadiazol-5-yl)-1H-benzimidazol-2-yl]amino}pyridin-4-yl)methyl]piperazin-1-yl}ethanone] gave an IC50 of 67 nM. Cc1noc(-c2ccc3nc(Nc4cc(CN5CCN(C(=O)C6CC6)C[C@H]5C)ccn4)[nH]c3c2)n1 [Example 16.03.04, cyclopropyl{(3R)-3-methyl-4-[(2-{[6-(3-methyl-1,2,4-oxadiazol-5-yl)-1H-benzimidazol-2-yl]amino}pyridin-4-yl)methyl]piperazin-1-yl}methanone] gave an IC50 of 54.6 nM. Work on Cc1noc(-c2ccc3nc(Nc4cc(CN5CCN(C(=O)C6CCC6)C[C@H]5C)ccn4)[nH]c3c2)n1 [Example 16.03.05, cyclobutyl{(3R)-3-methyl-4-[(2-{[6-(3-methyl-1,2,4-oxadiazol-5-yl)-1H-benzimidazol-2-yl]amino}pyridin-4-yl)methyl]piperazin-1-yl}methanone] yielded an IC50 of 84.7 nM. For Cc1noc(-c2ccc3nc(Nc4cc(CN5CCN(C(=O)CC(F)(F)F)CC5(C)C)ccn4)[nH]c3c2)n1 [Example 16.04.02, 1-{3,3-dimethyl-4-[(2-{[6-(3-methyl-1,2,4-oxadiazol-5-yl)-1H-benzimidazol-2-yl]amino}pyridin-4-yl)methyl]piperazin-1-yl}-3,3,3-trifluoropropan-1-one], the IC50 was 496 nM. Cc1noc(-c2ccc3nc(Nc4cc(CN5CCN(C(=O)CC6CC6)CC5(C)C)ccn4)[nH]c3c2)n1 [Example 16.04.03, 2-cyclopropyl-1-{3,3-dimethyl-4-[(2-{[6-(3-methyl-1,2,4-oxadiazol-5-yl)-1H-benzimidazol-2-yl]amino}pyridin-4-yl)methyl]piperazin-1-yl}ethanone] was tested, and the IC50 was 378 nM. Cc1noc(-c2ccc3nc(Nc4cc(CN5CCN(C(=O)C6CC6)CC5(C)C)ccn4)[nH]c3c2)n1 [Example 16.04.04, cyclopropyl{3,3-dimethyl-4-[(2-{[6-(3-methyl-1,2,4-oxadiazol-5-yl)-1H-benzimidazol-2-yl]amino}pyridin-4-yl)methyl]piperazin-1-yl}methanone] was tested, and the IC50 was 497 nM. Work on Cc1noc(-c2ccc3nc(Nc4cc(CN5CCN(C(=O)C6CCC6)CC5(C)C)ccn4)[nH]c3c2)n1 [Example 16.04.05, cyclobutyl{3,3-dimethyl-4-[(2-{[6-(3-methyl-1,2,4-oxadiazol-5-yl)-1H-benzimidazol-2-yl]amino}pyridin-4-yl)methyl]piperazin-1-yl}methanone] yielded an IC50 of 491 nM. CC(C)(C)OC(=O)N1CCN(Cc2ccnc(Nc3nc4ccc(-c5nc(C6CC6)no5)cc4[nH]3)c2)CC1 [Example 17.01, tert-butyl 4-[(2-{[6-(3-cyclopropyl-1,2,4-oxadiazol-5-yl)-1H-benzimidazol-2-yl]amino}pyridin-4-yl)methyl]piperazine-1-carboxylate] gave an IC50 of 97.8 nM. Work on O=C(CC(F)(F)F)N1CCN(Cc2ccnc(Nc3nc4ccc(-c5nc(C6CC6)no5)cc4[nH]3)c2)CC1 [Example 17.02, 1-{4-[(2-{[6-(3-cyclopropyl-1,2,4-oxadiazol-5-yl)-1H-benzimidazol-2-yl]amino}pyridin-4-yl)methyl]piperazin-1-yl}-3,3,3-trifluoropropan-1-one] yielded an IC50 of 64.9 nM. With O=C(CC1CC1)N1CCN(Cc2ccnc(Nc3nc4ccc(-c5nc(C6CC6)no5)cc4[nH]3)c2)CC1 [Example 17.03, 2-cyclopropyl-1-{4-[(2-{[6-(3-cyclopropyl-1,2,4-oxadiazol-5-yl)-1H-benzimidazol-2-yl]amino}pyridin-4-yl)methyl]piperazin-1-yl}ethanone] the IC50 was 56.5 nM. In the case of C=CCC(=O)N1CCN(Cc2ccnc(Nc3nc4ccc(-c5nc(C6CC6)no5)cc4[nH]3)c2)CC1 [Example 17.04, 1-{4-[(2-{[6-(3-cyclopropyl-1,2,4-oxadiazol-5-yl)-1H-benzimidazol-2-yl]amino}pyridin-4-yl)methyl]piperazin-1-yl}but-3-en-1-one], the IC50 is reported as 102 nM. In the case of O=C(C1CC1)N1CCN(Cc2ccnc(Nc3nc4ccc(-c5nc(C6CC6)no5)cc4[nH]3)c2)CC1 [Example 17.05, cyclopropyl{4-[(2-{[6-(3-cyclopropyl-1,2,4-oxadiazol-5-yl)-1H-benzimidazol-2-yl]amino}pyridin-4-yl)methyl]piperazin-1-yl}methanone], the IC50 is reported as 38.2 nM. For O=C(C1CCC1)N1CCN(Cc2ccnc(Nc3nc4ccc(-c5nc(C6CC6)no5)cc4[nH]3)c2)CC1 [Example 17.06, cyclobutyl{4-[(2-{[6-(3-cyclopropyl-1,2,4-oxadiazol-5-yl)-1H-benzimidazol-2-yl]amino}pyridin-4-yl)methyl]piperazin-1-yl}methanone], the IC50 was 61.3 nM. Work on Clc1ccccc1N1CCN(Cc2ccnc(Nc3nc4ccc(-c5nc(C6CC6)no5)cc4[nH]3)c2)CC1 [Example 17.07, N-(4-{[4-(2-chlorophenyl)piperazin-1-yl]methyl}pyridin-2-yl)-6-(3-cyclopropyl-1,2,4-oxadiazol-5-yl)-1H-benzimidazol-2-amine] yielded an IC50 of 102 nM. Work on CC(C)Cc1noc(-c2ccc3nc(Nc4cc(CN5CCN(C(=O)CC(F)(F)F)CC5)ccn4)[nH]c3c2)n1 [Example 18.01, 3,3,3-trifluoro-1-(4-{[2-({6-[3-(2-methylpropyl)-1,2,4-oxadiazol-5-yl]-1H-benzimidazol-2-yl}amino)pyridin-4-yl]methyl}piperazin-1-yl)propan-1-one] yielded an IC50 of 72.4 nM. CC(C)Cc1noc(-c2ccc3nc(Nc4cc(CN5CCN(C(=O)C6CC6)CC5)ccn4)[nH]c3c2)n1 [Example 18.02, cyclopropyl(4-{[2-({6-[3-(2-methylpropyl)-1,2,4-oxadiazol-5-yl]-1H-benzimidazol-2-yl}amino)pyridin-4-yl]methyl}piperazin-1-yl)methanone] gave an IC50 of 154 nM. O=C(C1CC1)N1CCN(Cc2ccnc(Nc3nc4ccc(-c5nc(C6CCCC6)no5)cc4[nH]3)c2)CC1 [Example 19.01, {4-[(2-{[6-(3-cyclopentyl-1,2,4-oxadiazol-5-yl)-1H-benzimidazol-2-yl]amino}pyridin-4-yl)methyl]piperazin-1-yl}(cyclopropyl)methanone] showed an IC50 of 414 nM. Molecule CCC(C)c1noc(-c2ccc3nc(Nc4cc(CN5CCN(C(=O)C6CC6)CC5)ccn4)[nH]c3c2)n1 (centres unmarked) [Example 20.01, (4-{[2-({6-[3-(butan-2-yl)-1,2,4-oxadiazol-5-yl]-1H-benzimidazol-2-yl}amino)pyridin-4-yl]methyl}piperazin-1-yl)(cyclopropyl)methanone] has an IC50 of 685 nM. Work on O=C(C1CC1)N1CCN(Cc2ccnc(Nc3nc4ccc(-c5nc(Cc6ccccc6)no5)cc4[nH]3)c2)CC1 [Example 21.01, {4-[(2-{[6-(3-benzyl-1,2,4-oxadiazol-5-yl)-1H-benzimidazol-2-yl]amino}pyridin-4-yl)methyl]piperazin-1-yl}(cyclopropyl)methanone] yielded an IC50 of 193 nM. For Clc1ccccc1N1CCN(Cc2ccnc(Nc3nc4ccc(-c5noc(C6CC6)n5)cc4[nH]3)c2)CC1 [Example 22.01, N-(4-{[4-(2-chlorophenyl)piperazin-1-yl]methyl}pyridin-2-yl)-6-(5-cyclopropyl-1,2,4-oxadiazol-3-yl)-1H-benzimidazol-2-amine], the IC50 was 481 nM. With CC(C)(C)Cc1nc(-c2ccc3nc(Nc4cc(CN5CCN(c6ccccc6Cl)CC5)ccn4)[nH]c3c2)no1 [Example 22.02, N-(4-{[4-(2-chlorophenyl)piperazin-1-yl]methyl}pyridin-2-yl)-6-[5-(2,2-dimethylpropyl)-1,2,4-oxadiazol-3-yl]-1H-benzimidazol-2-amine] the IC50 was 779 nM. Molecule O=C(CC1CC1)N1CCN(Cc2ccnc(Nc3nc4ccc(-c5ccncn5)cc4[nH]3)c2)CC1 [Example 23.01.01, 2-cyclopropyl-1-{4-[(2-{[6-(pyrimidin-4-yl)-1H-benzimidazol-2-yl]amino}pyridin-4-yl)methyl]piperazin-1-yl}ethanone] has an IC50 of 33.4 nM. For O=C(C1CC1)N1CCN(Cc2ccnc(Nc3nc4ccc(-c5ccncn5)cc4[nH]3)c2)CC1 [Example 23.01.02, cyclopropyl{4-[(2-{[6-(pyrimidin-4-yl)-1H-benzimidazol-2-yl]amino}pyridin-4-yl)methyl]piperazin-1-yl}methanone], the IC50 was 22.1 nM. Cc1cc(CN2CCN(C(=O)CC(F)(F)F)CC2)cc(Nc2nc3ccc(-c4ccncn4)cc3[nH]2)n1 [Example 23.02.01, 3,3,3-trifluoro-1-{4-[(2-methyl-6-{[6-(pyrimidin-4-yl)-1H-benzimidazol-2-yl]amino}pyridin-4-yl)methyl]piperazin-1-yl}propan-1-one] was tested, and the IC50 was 20.4 nM. With Cc1cc(CN2CCN(C(=O)C3CC3)CC2)cc(Nc2nc3ccc(-c4ccncn4)cc3[nH]2)n1 [Example 23.02.02, cyclopropyl{4-[(2-methyl-6-{[6-(pyrimidin-4-yl)-1H-benzimidazol-2-yl]amino}pyridin-4-yl)methyl]piperazin-1-yl}methanone] the IC50 was 13.6 nM. Molecule O=C(C1CC1)N1CCN(Cc2cc(Nc3nc4ccc(-c5ccncn5)cc4[nH]3)nc(C(F)(F)F)c2)CC1 [Example 23.03.01, cyclopropyl(4-{[2-{[6-(pyrimidin-4-yl)-1H-benzimidazol-2-yl]amino}-6-(trifluoromethyl)pyridin-4-yl]methyl}piperazin-1-yl)methanone] has an IC50 of 161 nM. For Cc1nccc(-c2ccc3nc(Nc4cc(CN5CCN(C(=O)CC(F)(F)F)CC5)ccn4)[nH]c3c2)n1 [Example 24.01.01, 3,3,3-trifluoro-1-{4-[(2-{[6-(2-methylpyrimidin-4-yl)-1H-benzimidazol-2-yl]amino}pyridin-4-yl)methyl]piperazin-1-yl}propan-1-one], the IC50 was 35.4 nM. Cc1nccc(-c2ccc3nc(Nc4cc(CN5CCN(C(=O)C6CCC6)CC5)ccn4)[nH]c3c2)n1 [Example 24.01.02, cyclobutyl{4-[(2-{[6-(2-methylpyrimidin-4-yl)-1H-benzimidazol-2-yl]amino}pyridin-4-yl)methyl]piperazin-1-yl}methanone] showed an IC50 of 39.9 nM.
